According to patent publication EP2687213B1, “Solid forms comprising (+)-2-[1-(3-ethoxy-4-methoxyphenyl)-2-methylsulfonylethyl]-4-acetylaminoisoindoline-1,3-dione, compositions thereof, and uses thereof” (CELGENE CORPORATION, priority 2008, dated 2009):

Legend:
human PDE2 = human PDE2 (Homo sapiens, UniProt O00408); assay: PDE2 enzyme assay; type: biochemical; settings: from PDE inhibition data of Table 1
conscious ferret = assay: Emesis and behavioral changes in conscious ferrets after oral dosing; type: in vivo; settings: for Ataxia / Backward walking / Flattened posture / Lip licking / Mouth clawing / Panting / Retches / Salivation / Vomits: oral, (animals that responded/group)
Protocol: PDE4 inhibitors were administered orally (p.o.), at doses initially of […], but subsequently up to 30 mg/kg in order to establish whether the TI was 10 or higher, and/or at lower doses to establish the minimum dose to cause 50% inhibition of neutrophilia. Ferrets were fasted overnight but allowed free access to water. The animals were orally dosed with vehicle or PDE4 inhibitor using a 15 cm dosing needle that was passed down the back of the throat into the oesophagus. After dosing, the animals were returned to holding cages fitted with Perspex doors to allow observation, and given free access to water. After dosing, the animals were constantly observed and any emesis or behavioral changes were recorded. The animals were allowed access to food 60 to 90 minutes after p.o. dosing.
Thirty minutes after p.o. dosing with compound or vehicle control, the ferrets were placed into sealed Perspex containers and exposed to an aerosol of LPS (100 µg/ml) for 10 minutes. Aerosols of LPS were generated by a nebulizer (DeVilbiss, USA) and this was directed into the Perspex exposure chamber. Following a 10 minute exposure period, the animals were returned to the holding cages and allowed free access to water, and at a later stage, food. Observation continued for a period of at least 2.5 hours post p.o. dosing and emetic episodes and behavioral changes were recorded.
• 1. % Inhibition of LPS-induced pulmonary neutrophilia. • 2. Emetic episodes - the number of vomits and retches were counted. • 3. Behavioral changes - the following behavioral effects were noted: salivation, panting, mouth clawing, flattened posture, ataxia, arched back and backward walking. Any behavioral changes were semi-quantified by applying a severity rating (mild, moderate or severe). • 4. The TI was calculated as the highest dose found to not cause emetic episodes divided by the lowest dose found to inhibit pulmonary neutrophilia by 50% or more.
Numbers in parentheses refer to the number of animals that responded. The numbers of animals in each group range from 4 to 22.

[1] = tested on: LPS-induced pulmonary neutrophilia; assay: LPS-induced lung neutrophilia conscious ferret model; type: in vivo; settings: threshold emetic dose divided by ED50 for pulmonary neutrophilia
From the text: The conscious ferret model has been used to investigate anti-inflammatory, emetic and behavioral effects of PDE4 inhibitors when administered by the oral (p.o.) route. From these experiments, a therapeutic index (TI) for each PDE4 inhibitor may be determined. The TI has been calculated by dividing the threshold dose for causing emetic episodes and behavioral changes by the anti-inflammatory dose (dose that causes 50% inhibition of the LPS-induced neutrophilia). […]
Thirty minutes after p.o. dosing with compound or vehicle control, the ferrets were placed into sealed Perspex containers and exposed to an aerosol of LPS (100 µg/ml) for 10 minutes. […] Observation continued for a period of at least 2.5 hours post p.o. dosing and emetic episodes and behavioral changes were recorded. […]
The bronchoalveolar lavage (BAL) samples were centrifuged at 1,500 rpm for 5 minutes. […] From this, the total number of neutrophils in the BAL was determined.
• 1. % Inhibition of LPS-induced pulmonary neutrophilia. • 2. Emetic episodes - the number of vomits and retches were counted. • 3. […] Any behavioral changes were semi-quantified by applying a severity rating (mild, moderate or severe). • 4. The TI was calculated as the highest dose found to not cause emetic episodes divided by the lowest dose found to inhibit pulmonary neutrophilia by 50% or more.

human PDE2, sequence (O00408 whole entry): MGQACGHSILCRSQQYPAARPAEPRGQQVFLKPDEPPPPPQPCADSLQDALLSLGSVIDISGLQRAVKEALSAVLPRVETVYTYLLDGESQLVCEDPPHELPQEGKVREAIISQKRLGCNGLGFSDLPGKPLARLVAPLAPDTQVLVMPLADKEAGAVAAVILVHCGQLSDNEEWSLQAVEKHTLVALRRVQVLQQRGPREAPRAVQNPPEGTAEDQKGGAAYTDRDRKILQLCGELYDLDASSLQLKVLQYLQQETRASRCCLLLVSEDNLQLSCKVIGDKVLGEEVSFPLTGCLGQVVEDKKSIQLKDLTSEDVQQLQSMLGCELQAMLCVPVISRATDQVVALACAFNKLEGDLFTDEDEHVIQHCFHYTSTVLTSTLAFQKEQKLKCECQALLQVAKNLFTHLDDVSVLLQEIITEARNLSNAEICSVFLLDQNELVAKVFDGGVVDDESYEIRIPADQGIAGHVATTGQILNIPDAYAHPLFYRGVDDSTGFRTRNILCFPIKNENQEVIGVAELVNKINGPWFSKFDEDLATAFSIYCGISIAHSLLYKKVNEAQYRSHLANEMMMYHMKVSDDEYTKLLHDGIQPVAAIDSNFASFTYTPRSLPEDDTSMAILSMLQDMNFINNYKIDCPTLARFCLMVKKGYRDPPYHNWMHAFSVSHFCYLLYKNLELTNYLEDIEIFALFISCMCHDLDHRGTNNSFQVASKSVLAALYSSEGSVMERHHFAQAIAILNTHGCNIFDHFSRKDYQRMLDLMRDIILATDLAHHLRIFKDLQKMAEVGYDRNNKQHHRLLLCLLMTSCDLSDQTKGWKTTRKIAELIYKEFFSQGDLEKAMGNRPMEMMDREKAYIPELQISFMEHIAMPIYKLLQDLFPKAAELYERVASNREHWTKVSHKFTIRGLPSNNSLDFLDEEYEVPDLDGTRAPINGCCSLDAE

Q: What does the source list for CCOc1cc(C(CS(C)(=O)=O)N2C(=O)c3cccc(NC(C)=O)c3C2=O)ccc1OC (single isomer, unassigned; (+)) [Compound A, (+)-2-[1-(3-ethoxy-4-methoxyphenyl)-2-methylsulfonylethyl]-4-acetylaminoisoindoline-1,3-dione]?
A: PDE Specificity Ratio PDE4/PDE2 (human PDE2): >10000 fold; emetic episodes (conscious ferret; 10 mg/kg p.o., in 2/6 ferrets): some retching but no frank emesis; emesis (conscious ferret; 30 mg/kg p.o. (highest dose tested), in 3/4 animals): moderate to marked emesis; behavioral changes (flattened posture, lip licking and backward walking), severity (conscious ferret; 0.1-3 mg/kg, p.o.): mild; emetic episodes (retching and vomiting) (conscious ferret; 0.1-3 mg/kg, p.o.): no emetic episodes; Ataxia (conscious ferret; 0.1 mg/kg): None; Backward walking (conscious ferret; 0.1 mg/kg): Mild (3/5); Flattened posture (conscious ferret; 0.1 mg/kg): Mild (2/5); Lip licking (conscious ferret; 0.1 mg/kg): Mild (4/5); Mouth clawing (conscious ferret; 0.1 mg/kg): None; Panting (conscious ferret; 0.1 mg/kg): None; Retches (conscious ferret; 0.1 mg/kg): None; Salivation (conscious ferret; 0.1 mg/kg): None; Vomits (conscious ferret; 0.1 mg/kg): None; Ataxia (conscious ferret; 0.3 mg/kg): None; Backward walking (conscious ferret; 0.3 mg/kg): Mild (4/6); Flattened posture (conscious ferret; 0.3 mg/kg): Mild (2/6); Lip licking (conscious ferret; 0.3 mg/kg): Mild (3/6); Mouth clawing (conscious ferret; 0.3 mg/kg): None; Panting (conscious ferret; 0.3 mg/kg): None; Retches (conscious ferret; 0.3 mg/kg): None; Salivation (conscious ferret; 0.3 mg/kg): None; Vomits (conscious ferret; 0.3 mg/kg): None; Ataxia (conscious ferret; 1.0 mg/kg): None; Backward walking (conscious ferret; 1.0 mg/kg): Mild (4/6); Flattened posture (conscious ferret; 1.0 mg/kg): Mild (2/6); Lip licking (conscious ferret; 1.0 mg/kg): Mild (6/6); Mouth clawing (conscious ferret; 1.0 mg/kg): None; Panting (conscious ferret; 1.0 mg/kg): None; Retches (conscious ferret; 1.0 mg/kg): None; Salivation (conscious ferret; 1.0 mg/kg): None; Vomits (conscious ferret; 1.0 mg/kg): None; Ataxia (conscious ferret; 3.0 mg/kg): None; Backward walking (conscious ferret; 3.0 mg/kg): Moderate (5/8); Flattened posture (conscious ferret; 3.0 mg/kg): Marked (7/8); Lip licking (conscious ferret; 3.0 mg/kg): Mild (2/8); Mouth clawing (conscious ferret; 3.0 mg/kg): Mild (1/8); Panting (conscious ferret; 3.0 mg/kg): None; Retches (conscious ferret; 3.0 mg/kg): None; Salivation (conscious ferret; 3.0 mg/kg): None; Vomits (conscious ferret; 3.0 mg/kg): None; Ataxia (conscious ferret; 10 mg/kg): None; Backward walking (conscious ferret; 10 mg/kg): Marked (6/6); Flattened posture (conscious ferret; 10 mg/kg): Marked (6/6); Lip licking (conscious ferret; 10 mg/kg): Moderate (5/6); Mouth clawing (conscious ferret; 10 mg/kg): Mild (1/6); Panting (conscious ferret; 10 mg/kg): None; Retches (conscious ferret; 10 mg/kg): Mild (2/6); Salivation (conscious ferret; 10 mg/kg): Mild (1/6); Vomits (conscious ferret; 10 mg/kg): None; Ataxia (conscious ferret; 30 mg/kg): Mild (3/4); Backward walking (conscious ferret; 30 mg/kg): Mild (2/4); Flattened posture (conscious ferret; 30 mg/kg): Marked (4/4); Lip licking (conscious ferret; 30 mg/kg): Moderate (4/4); Mouth clawing (conscious ferret; 30 mg/kg): Marked (4/4); Panting (conscious ferret; 30 mg/kg): Mild (1/4); Retches (conscious ferret; 30 mg/kg): Marked (3/4); Salivation (conscious ferret; 30 mg/kg): Moderate (3/4); Vomits (conscious ferret; 30 mg/kg): Moderate (3/4); Therapeutic index [1]: 12
